Measurements from patent US12679855B2, “Inhibitors of the enzyme enolase for precision oncology” (Board of Regents, The University of Texas System, priority 2019, dated 2026).
Several values for one entry are separate records, joined by “and”; a condition that tells them apart may be missing. Identical values can stand only once. Like-named read-outs stand apart in the source and are kept apart here.

Assays:
[1] = Plasma and organ levels after injection of POMHEX in mice; format: in vivo, mouse
Protocol: (§1) FIGS. 3A-3D show the ex-vivo half-life of POMHEX in biological fluids may limit its clinical utility. (FIG. 3A) Ex-vivo half-life of POMHEX in biological fluids. POMHEX has a half-life of ~30 seconds in mouse plasma. The degradation may be prevented by heat inactivation or de-proteinatization with acetonitrile. […] (FIG. 3B) Plasma concentration of HEX and HemiPOMHEX following a single intravenous injection of POMHEX, as a function of time. Mice were injected IV with 10 mg/kg POMHEX and sacrificed at the indicated time points. Each data point represents a single animal. Note, POMHEX itself was below the detection limit (100 nM) even at the earliest time point. It is believed that this may not be reflective of the physiological state as separation of plasma from hematocrit is required for the measurements, which adds approximately 6 minutes of processing time during which POMHEX may be degraded to HemiPOMHEX. (FIG. 3C) The results of the same experiment but performed with an intraperitoneal injection of POMHEX, at a dose of 40 mg/kg. (FIG. 3D) Quantification of POMHEX and its metabolites in mouse organs 24 hrs. after a single intravenous injection of 10 mg/kg POMHEX.
FIGS. 16A-16C show the ex-vivo half-life of POMHEX in biological fluids limits its clinical utility. […] Lower levels of carboxylesterase in human blood results in a longer half-life of POMHEX. (FIG. 16B) Dramatically higher drug exposure in non-human primates as compared to mice following IV injections of POMHEX. Mice (n=3; pooled) and monkeys (n=3; pooled) were injected IV with POMHEX at 10 mg/kg and 2.5 mg/kg, respectively. […] POMHEX was undetectable (<50 nM) even at the earliest time point, in both monkey and mouse experiments; at 98 nM, POMHEX was detectable 1-minute post-injection, but at no time thereafter. […] HEX and HemiPOMHEX were not measured at concentrations higher than 10 mg/kg due to the hazards associated with the derivatization agent, trimethylsilyl-diazomethane in hexane (TMS-DAM). (FIG. 16C) Schematic of POMHEX in circulation when administered IP or IV in mice. […]

[2] = tested on: U343 glioma cell line (ENO1-heterozygously deleted); assay: Enolase inhibitor sensitivity (crystal violet), ENO1-heterozygously deleted U343 cells; format: cell-based; conditions: DMEM 10% FBS, terminal cell density by crystal violet after 7 days
Protocol: (§2) Enolase inhibitor sensitivity experiments were performed, using DMEM containing 10% FBS cell culture media. IC50 (expressed in nM) were calculated based on terminal cell density measured by crystal violet after 7 days of growth. […] Left table: POMHEX. Middle table: HEX. Right table: Ratio of sensitivity to POMHEX versus HEX for each cell line.
(§3) (FIG. 19A) ENO1-deleted (D423, red), ENO1-isogenically rescued (D423 ENO1, blue), and ENO1-WT (LN319, grey) cells were treated POMHEX in RPMI media under the same experimental conditions used for NCI-60 screening. […] IC50 (expressed in nM) were calculated based on terminal cell density measured by crystal violet.
(§4) Cell proliferation assay.

[3] = tested on: D423 (ENO1-deleted) glioma cells; assay: Cell proliferation assay (crystal violet) in ENO1-deleted glioma cells; format: cell-based; conditions: 4 days
[4] = Plasma levels after IV injection of POMHEX in monkeys; format: in vivo, monkey
Protocol: FIGS. 16A-16C show the ex-vivo half-life of POMHEX in biological fluids limits its clinical utility. […] Lower levels of carboxylesterase in human blood results in a longer half-life of POMHEX. (FIG. 16B) Dramatically higher drug exposure in non-human primates as compared to mice following IV injections of POMHEX. Mice (n=3; pooled) and monkeys (n=3; pooled) were injected IV with POMHEX at 10 mg/kg and 2.5 mg/kg, respectively. […] POMHEX was undetectable (<50 nM) even at the earliest time point, in both monkey and mouse experiments; at 98 nM, POMHEX was detectable 1-minute post-injection, but at no time thereafter. […] HEX and HemiPOMHEX were not measured at concentrations higher than 10 mg/kg due to the hazards associated with the derivatization agent, trimethylsilyl-diazomethane in hexane (TMS-DAM). (FIG. 16C) Schematic of POMHEX in circulation when administered IP or IV in mice. Due to high levels of plasma carboxylesterase, a gradient decrease in POMHEX away from the site of injection is accompanied by a concurrent increase in HemiPOMHEX.

[5] = Ex-vivo stability in human blood; format: in vitro ADME
Protocol: as §1, with “(FIG. 3C) The results of the same experiment but performed with an intraperitoneal injection of POMHEX, at a dose of 40 mg/kg.” left out
FIGS. 16A-16C show the ex-vivo half-life of POMHEX in biological fluids limits its clinical utility. […] HEX and HemiPOMHEX were not measured at concentrations higher than 10 mg/kg due to the hazards associated with the derivatization agent, trimethylsilyl-diazomethane in hexane (TMS-DAM). […]

[6] = tested on: glioma cell lines with different ENO1-deletion status; assay: Enolase inhibitor sensitivity across glioma cell lines; format: cell-based
Protocol: as §2, §3

[7] = tested on: D502 glioma cell line (ENO1-heterozygously deleted); assay: Enolase inhibitor sensitivity (crystal violet), ENO1-heterozygously deleted D502 cells; format: cell-based; conditions: DMEM 10% FBS, terminal cell density by crystal violet after 7 days
Protocol: as §2, §3, §4

[8] = Human plasma stability assay (31P NMR); format: in vitro ADME
Protocol: VCY17 (left) and POMHEX (right) were prepared at 1.5 mM and added to human plasma in an NMR tube with 10% D2O for signal lock. […] As expected, emergence of the second peak after 1 h is due to hydrolysis of the acetyl-protected hydroxamate; the nitroimidazole moiety remains attached (mono-ester phosphonates always show ^31P-chemical shifts <20 ppm); intact phosphoramidate mixed ester was verified by ^31P-^1H HSQC showing resonance with protons at ~5 ppm (—CH2—O—P) and 4 ppm (—CH2—NH—P). Note that VCY17 and de-acetylated VCY17 can come out as doublets: this is because two chiral centers (Phosphorus and C1) yield cis/trans diasteromers.
VCY13 (FIG. 20A) and VCY31 (FIG. 20B) are thioesterase-labile phosphonoamidates. ENO1-deleted (D423, red), ENO1-isogenically rescued (D423 ENO1, blue), and ENO1-WT (LN319, grey) cells were treated with either VCY13 or VCY31 for 5 days. […] (FIG. 20B) VCY31 is a structurally similar pro-drug that uses 2-picolylamine, rather than benzylamine, as a second pro-drug leave group. […] 4 mM VCY31 was dissolved in 80% human plasma, 20% D2O and monitored by ^31P NMR (121 MHz) for 15 hours. Intact VCY31 has a ^31P NMR shift of 33 ppm. Hydrolysis of the thioester begins to occur after 2 hours, as indicated by the emergence of a peak at ~16 ppm.
Human plasma stability assay. POMHEX and VCY17 (1.5 mM) were added to human plasma (Sigma #P9523) in an NMR tube with 10% D2O for signal lock. ^31P NMR measurements (31P CPD, 1000 transients) were conducted every 30 minutes on the first day and every 24 hours, for 4 days afterwards.

## CC(C)(C)C(=O)OCOP(=O)(OCOC(=O)C(C)(C)C)C1CCCN(O)C1=O (stereo not shown) [POMHEX]
[1]; 24 hrs. after a single intravenous injection of 10 mg/kg POMHEX
  level in mouse organs: below the quantification limit (BQL)
[1]; IV 10 mg/kg, even at the earliest time point, 10 mg/kg
  plasma concentration of POMHEX, mice: < 100 nM and < 50 nM
[2]
  IC50: 559 nM
[3]; 1% O2, read-out: IC50 for D423 ENO1-homozygously deleted glioma cells under 1% O2 hypoxia
  IC50: ~90 nM and 84 nM
[3]; 1% O2 versus 21% O2
  potency decrease under 1% O2: ~ 2.5 fold
[3]; normoxia (21% O2), read-out: IC50 for D423 ENO1-homozygously deleted glioma cells under normoxia
  IC50: ~40 nM and 31 nM
[4]; 1-minute post-injection, species not stated
  plasma concentration of POMHEX 1-minute post-injection: 98 nM
[4]; IV 2.5 mg/kg
  potentially higher toxicity in monkey: did not materialize
[4]; IV 2.5 mg/kg, even at the earliest time point
  plasma concentration of POMHEX, monkeys: < 50 nM
[5]
  stability in human blood relative to mouse plasma: at least 20 times
[6]
  specificity towards ENO1-heterozygous deleted cells compared to normal tissue: 10 fold
[6]; D423, D423 ENO1, LN319 cells, NCI-60 screening conditions
  sensitivity greater in RPMI as compared to DMEM media: ~ 3 fold
[6]; average across glioma cell lines
  potency of POMHEX greater than HEX, on average: ~ 75 fold
[7]
  IC50: 82 nM
[8]; 1.5 mM, human plasma with 10% D2O, 31P NMR
  time of hydrolysis to HemiPOMHEX in human plasma: less than 1 h
[8]; FIG. 15
  longevity of intact POMHEX: 2 h
